# Marks after values point to notes of the source that are not given here.
# Legend:
# [1] = system: H460 cells (human lung carcinoma); test: Migration assay (Transwell chemotaxis); type: cell-based; details: after 24 h incubation
# Method: (§1) Human Lung Carcinoma:H460: maintained in RPMI1640 medium+10% FCS.
# (§2) H460 cells were seeded in complete medium and treated with different compound concentrations for 24 h. Then, cells were harvested and transferred to 24-well Transwell chambers (Costar) in serum-free medium in the following ways:
# migration assay: 1.2×10^5 cells/well were seeded in the upper chamber, and the drug was added, in the same concentrations utilized before, in both upper and lower chambers. After 4 h of incubation at 37° C., migrated cells were fixed in 95% ethanol, stained with a 2% crystal violet in 70% ethanol solution, and counted by an inverted microscope.
# [2] = system: HT29/Mit cells (mitoxantrone-resistant human colon carcinoma, BCRP overexpression); test: Antiproliferative activity, 72 h treatment, SRB assay, HT29/Mit
# Method: HT29 and HT29/Mit (line obtained by prolonged exposure to mitoxantrone, and characterised by overerexpression of BCRP, which confers cross resistance to topotecan, irinotecan and to its metabolite SN38): maintained in McCoy 5A medium+10% FCS.
# The cells (HT29 and HT29/Mit:. 40,000 cells/ml, LoVo, LoVo/Dx and HCT116: 50,000 cells/ml) are seeded in 100 μl of the respective culture media in 96-well plates. 24 hours after seeding, an aliquot (10 μl) of drug at the various concentrations is added. In the samples in which the effect of the combination of two compounds is to be tested the inhibitor is added immediately before the cytotoxic. For each dose or combination of doses/drugs the effect of the treatment is determined in 4-8 replicates.
# After 72 hours of treatment the antiproliferative effect is evaluated using the sulforhodamine B (SRB) assay: the cells are fixed by adding 25 μl of 50% TCA to each well and left for 1 hour at 4° C. After washing them with water and allowing them to dry, 100 μl of 0.4% SRB in 1% acetic acid are added and left for 30 minutes at room temperature. After 4 washes in 1% acetic acid, they are left to dry, then the dye fixed by the proteins is dissolved under basic conditions with 100 μl 10 mM cold Tris and the solution is read using a spectrophotometer at 550 nm.
# Percentage cell growth is calculated as the optical density of treated samples compared to the optical density of controls (untreated cells).
# The Combination Index (C.I.) was determined according to Kern's method, 1988 (who continued from Drewinko B, 1976) (Kern D. H., Cancer Res. 48, 117-121, 1988; Drewinko B., Cancer Biochem. Biophys. 1, 187-195, 1976) by means of the following formula: […], where SFa and SFb are the fractions of cells surviving to treatment with compound a and b, respectively; SFab is the fraction surviving to the combination of compounds a and b.
# [3] = system: LoVo/Dx cells (doxorubicin-resistant human colon carcinoma, P-glycoprotein overexpression); test: Antiproliferative activity, 72 h treatment, SRB assay, LoVo/Dx; type: cell-based
# From the text: (§3) LoVo and LoVo/Dx (line obtained by prolonged exposure to doxorubicin and characterised by overerexpression of P-glycoprotein, which confers resistance to doxorubicin): maintained in HAM-F12 medium+10% FCS.
# [4] = system: HT29 cells (human colon carcinoma); test: Antiproliferative activity, 72 h treatment, SRB assay, HT29; type: cell-based
# [5] = system: H460 primary tumor; test: H460 human non-small cell lung carcinoma xenograft, antitumor activity on the primary tumor; type: in vivo, athymic Swiss nude mice; details: H460 s.c., p.o. for 8 weeks, topotecan 1 mg/kg, compound of example 2 30 mg/kg
# Method: Female athymic Swiss nude mice (8-10 weeks old) (Charles River, Calco, Italy) were used for the experiments, as described above.
# H460 cells were injected i.p. into nude mice, adapted to grow as ascitis and maintained in vivo by i.p. passages (5×10^6 cells/mouse in 0.5 ml PBS) (Pratesi G., Br. J. Cancer 63, 71-74, 1991). Briefly, cells were collected from the donor mice about 7 days after inoculum. After washing, cell number and viability were determined by trypan blue exclusion. Such procedure allowed to obtain a single cell suspension easily available for s.c or i.v. injection.
# The effects of the compounds of the invention and/or topotecan on the growth of primary tumors and spontaneous lung metastasis were tested in mice inoculated s.c. in the right flank with H460 ascitic tumor cells (2×10^6/mouse). Each control or drug-treated group included 9-11 mice. The s.c. tumor growth was followed by biweekly measurements of tumor diameters with a Vernier caliper. Drug treatment was delivered orally, for 8 weeks, from day 1. Topotecan was delivered at the dose of 1 mg/kg and compounds of the invention were delivered at the dose of 30 mg/kg; in the combination group the compounds of the invention were delivered almost 1 hour after topotecan treatment. Control mice were solvent-treated orally in parallel with drug treatments.
# Drug efficacy was assessed as mean percentage tumor weight inhibition in drug-treated versus control mice expressed as tumor weight inhibition % (TWI %)=100−(mean tumor weight treated/mean tumor weight control×100), evaluated during and after drug treatment. Drug tolerability was assessed in tumor-bearing mice as either lethal toxicity, i.e., any death in treated mice occurring before any control death, or percentage body weight loss (BWL %)=100−(body weight on day x/body weight on day 1×100), where x represents a day after or during the treatment period.
# [6] = system: LoVo cells (human colon carcinoma); test: Antiproliferative activity, 72 h treatment, SRB assay, LoVo; type: cell-based
# From the text: as §3
# [7] = system: H460 cells (human lung carcinoma); test: Invasion assay (Matrigel chemoinvasion); type: cell-based
# Method: as §1, §2
# invasion assay: Transwell membranes were coated with 12.5 μg/well of Matrigel (BD Biosciences) and dried for 24 h. After this, 2.4×10^5 cells/well were seeded onto the artificial basement membrane in upper chamber, and drug was added as described for migration assay. After 24 h of incubation at 37° C., cells that invaded the Matrigel and migrated to the lower chamber were stained and counted as described for migration assay.
# [8] = cell line not stated in the sentence (follows LoVo/DX)
structure (smiles),measurement,setting,value
CCOc1cc(C(=O)NC2CC(C)(C)NC(C)(C)C2)ccc1-c1cc2cc(Cl)c(Cl)cc2[nH]1 [Example 2],inhibition at 2.2 µM,"[1]; NCI-H460, 2.2 μM",51%
same,inhibition at 5.7 µM,"[1]; NCI-H460, 5.7 μM",92%
same,Effect on antiproliferative activity of topotecan,"[2]; HT29/Mit model, subtoxic and subactive concentrations (<1 μM) of compound of example 2",enhanced antiproliferative activity of topotecan
same,Effect on cell growth of compound of example 2 alone,"[2]; HT29/Mit, 72 hours, 0.5 μM",does not itself inhibit cell growth
same,IC50,"[2]; Homo sapiens, HT-29, 72 h, read-out: Antiproliferative activity (IC50 ± S.D., μM) HT-29/Mit",0.9 ± 0.2 µM
same,IC50,"[3]; Homo sapiens, LoVo/DX, 72 h, read-out: Antiproliferative activity (IC50 ± S.D., μM) LoVo/Dx",3 ± 1.3 µM
same,Interaction with SN38,"[3]; LoVo/DX variant (MDR phenotype), compared with LoVo",even more evident
same,Interaction with doxorubicin,[3]; [8],Synergistic interactions
same,Interaction with taxol,[3]; [8],Synergistic interactions
same,Effect on antiproliferative activity of topotecan,"[4]; HT29 model, subtoxic and subactive concentrations (<1 μM) of compound of example 2",enhanced antiproliferative activity of topotecan
same,IC50,"[4]; Homo sapiens, HT-29, 72 h, read-out: Antiproliferative activity (IC50 ± S.D., μM) HT-29",1 ± 0.1 µM
same,Antiproliferative activity in the human tumour cell lines used (summary of Table 1),"[4]; all lines: 72 hours (HT29, HT29/Mit, LoVo, LoVo/DX, HCT116) or 48 hours (HepG2, SHSY-5Y, SK-N-BE(2), A2780)",high antiproliferative potency
same,LCK (Log10 Cell Kill),[5],0.6
same,Max TWI (day 56) (Maximal Tumor weight inhibition achieved),[5]; listed as Compound of example 2,58* %
same,Max TWI (day 56) (Maximal Tumor weight inhibition achieved),[5]; listed as compound of example 2,58%
same,IC50,"[6]; Homo sapiens, LoVo, 72 h, read-out: Antiproliferative activity (IC50 ± S.D., μM) LoVo",2.4 ± 1.4 µM
same,Interaction with SN38,[6]; LoVo line,synergism
same,Interaction with taxol,[6]; LoVo line,synergism
same,inhibition at 2.2 µM,"[7]; NCI-H460, 2.2 μM",92%
same,inhibition at 5.7 µM,"[7]; NCI-H460, 5.7 μM",100%

# Source: patent US20070299084A1, “Indole Derivatives Useful for Treating Resistance to Antitumor Agents” (NIKEM RESE S.R.L., priority 2004, published 2007)
